The target of assay [1] is T1, Glucocorticoid Receptor (GR) (Homo sapiens, UniProt P04150).
T1 construct: purchased Invitrogen P2893
T1 sequence (P04150 1-777): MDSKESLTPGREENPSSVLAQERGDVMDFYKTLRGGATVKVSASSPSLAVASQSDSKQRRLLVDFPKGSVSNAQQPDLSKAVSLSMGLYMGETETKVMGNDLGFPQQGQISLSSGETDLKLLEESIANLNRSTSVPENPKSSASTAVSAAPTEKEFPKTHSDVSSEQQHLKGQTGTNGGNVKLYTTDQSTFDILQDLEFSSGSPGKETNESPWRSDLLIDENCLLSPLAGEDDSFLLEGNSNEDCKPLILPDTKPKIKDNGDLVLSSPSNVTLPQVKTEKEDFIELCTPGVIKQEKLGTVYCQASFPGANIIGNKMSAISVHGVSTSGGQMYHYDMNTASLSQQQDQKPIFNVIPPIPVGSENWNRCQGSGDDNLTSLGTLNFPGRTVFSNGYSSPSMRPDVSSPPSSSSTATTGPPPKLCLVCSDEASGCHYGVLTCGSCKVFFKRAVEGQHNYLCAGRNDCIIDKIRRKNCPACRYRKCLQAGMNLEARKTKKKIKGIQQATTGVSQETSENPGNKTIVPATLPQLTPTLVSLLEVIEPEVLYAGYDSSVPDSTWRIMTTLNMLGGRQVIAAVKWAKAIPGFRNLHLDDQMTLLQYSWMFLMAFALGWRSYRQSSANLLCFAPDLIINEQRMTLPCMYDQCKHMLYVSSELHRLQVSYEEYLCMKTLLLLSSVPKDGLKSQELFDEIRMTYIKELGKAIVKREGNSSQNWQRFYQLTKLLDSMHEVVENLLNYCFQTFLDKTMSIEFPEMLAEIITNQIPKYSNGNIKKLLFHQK
Put plainly: GR Fluorescence Polarization Assay (PolarScreen Glucocorticoid Receptor Competitor Assay, Red). As to conditions: IC50 class ranges, read-out: GR binding. Summed up: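 Competitive fluorescence-polarization assay using a red fluorescent glucocorticoid tracer with human GR in kit buffer. Compounds serially diluted 1:4 in DMSO, incubated with tracer and GR overnight at 4° C, then polarization read.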
Background: In fluorescence polarisation assays a small probe gives low polarisation when free and higher when bound to something large.

Assay [2] relates to IL-6 in A549 cells stimulated with IL-1β. Briefly: A549 Cell Assay to Measure Inflammation Markers (inhibition of IL-1β-induced IL-6). Format: cell-based. As to conditions: intrinsic activity, Emax class ranges; for Emax: Homo sapiens. Summed up:
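Compound pre-incubated with A549 cells 1 h at 37 °C, then stimulated with IL-1β (1 ng/mL final, 0.1% DMSO). Supernatant IL-6 quantified by MSD immunoassay after a further incubation. IC50 and Emax derived.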

[3] abbreviates: A549, A549 Cell Assay to Measure Inflammation Markers.
Where [4] appears, read: A549 Cell Assay to Measure Inflammation Markers.

Structures are written as SMILES.

A word on the Emax: it is the greatest response seen or fitted, relative to the assay's reference.

With `Cc1ccc(C#N)cc1C1SCCNc2c1c(-c1ccccn1)nn2C` (centres unmarked) [G.1, 4-methyl-3-[1-methyl-3-(2-pyridyl)-4,6,7,8-tetrahydropyrazolo[3,4-e][1,4]thiazepin-4-yl]benzonitrile], the IC50 in assay [1] fell in the range of 100 to 1000 nM. Moreover, the Emax in assay [2] (setting [3]) is below 50%.

Regarding `Cn1nc(-c2ccccn2)c2c1NCCSC2c1ccc(Cl)cc1CF` (centres unmarked) [D.39], in assay [1], the IC50 is below 100 nM. Moreover, in assay [2] (setting [3]), the Emax is above 60%.

On to `Cn1nc(-c2ccccn2)c2c1NCCSC2c1ccc(Br)cc1` (centres unmarked) [D.25, 4-(4-bromophenyl)-1-methyl-3-(2-pyridyl)-4,6,7,8-tetrahydropyrazolo[3,4-e][1,4]thiazepine], for which the IC50 in assay [1] was 100 to 1000 nM. Also, the maximal response (Emax) in assay [2] (setting [3]) was below 50%.

As to `Cc1cc(OC(F)(F)F)ccc1C1SCCNc2c1c(-c1ccccn1)nn2C` (centres unmarked) [D.12], in assay [1], the IC50 is below 100 nM. The same compound had an Emax in assay [2] (setting [3]) below 50%.

`Cc1nn(C)c2c1C(c1ccc(Br)cc1Cl)SC(C)(C)CN2` (centres unmarked) [D.60]: in assay [1], the IC50 was below 100 nM. In addition, the Emax in assay [2] (setting [3]) was above 50%.

For `Cc1cc(OCC#N)ccc1[C@@H]1SC[C@@H](C)Nc2c1c(-c1ccccn1)nn2C` (single isomer, unassigned) [M.23, 2-(4-(1,7-dimethyl-3-(pyridin-2-yl)-4,6,7,8-tetrahydro-1H-pyrazolo[3,4-e][1,4]thiazepin-4-yl)-3-methylphenoxy)acetonitrile], the IC50 in assay [1] is below 100 nM. This compound also displayed an Emax in assay [2] (setting [3]) above 50%.

Take `Cc1cc(Cl)ccc1[C@H]1S[C@@H](CCO)CNc2c1c(C)nn2C` (single isomer, unassigned) [M.15, 2-[4-(4-chloro-2-methyl-phenyl)-1,3-dimethyl-4,6,7,8-tetrahydro-1H-pyrazolo[3,4-e][1,4]thiazepin-6-yl]-ethanol]: the IC50 in assay [1] lay in the range of 100 to 1000 nM. Moreover, the maximum response (Emax) in assay [2] (setting [3]) is above 70%.

Consider `Cc1cccc(C2SCCNc3c2c(-c2ccccn2)nn3C)c1C` (centres unmarked) [D.33], for which the IC50 in assay [1] was in the range of 100 to 1000 nM. The Emax in assay [2] (setting [3]) is below 50%.

Regarding `Cc1cc(O)ccc1C1SCCNc2c1c(-c1ccccn1)nn2C` (centres unmarked) [D.42, 3-methyl-4-[1-methyl-3-(2-pyridyl)-4,6,7,8-tetrahydropyrazolo[3,4-e][1,4]thiazepin-4-yl]phenol], in assay [1], the IC50 is below 100 nM. Besides, the Emax in assay [2] (setting [3]) is above 50%.

In the case of `CC1=Nc2c(c(-c3ccccn3)nn2C)C(c2ccc(Cl)cc2C)SC1` (centres unmarked), the IC50 in assay [1] lay within 100 to 1000 nM. The compound also returned an Emax in assay [2] (setting [3]) below 50%.

For the compound `Cc1cc(C#N)ccc1C1SC(C)(C)CNc2c1c(C)nn2C` (centres unmarked) [G.6], in assay [1], the IC50 is 100 to 1000 nM. Besides, the Emax in assay [2] (setting [3]) was below 50%.

Regarding `Cc1ncccc1NC(=O)c1ccc(-c2nn(C)c3c2C(c2ccc(Cl)cc2Cl)SCCN3)nc1` (centres unmarked) [F.2], the IC50 in assay [1] lay within 1000 to 10000 nM. The same compound displayed an Emax in assay [2] (setting [3]) below 50%.

`Cc1cc(CCC(C)(C)O)ccc1[C@@H]1SC[C@@H](C)Nc2c1c(-c1ccccn1)nn2C` (single isomer, unassigned) [M.44, 4-(4-(1,7-dimethyl-3-(pyridin-2-yl)-4,6,7,8-tetrahydro-1H-pyrazolo[3,4-e][1,4]thiazepin-4-yl)-3-methylphenyl)-2-methylbutan-2-ol]: the IC50 in assay [1] was below 100 nM. This compound also returned an Emax in assay [2] (setting [3]) above 60%.

As for `Cn1nc(-c2ccccn2)c2c1NCCSC2c1ccc(Cl)cc1Br` (centres unmarked) [D.37, 4-(2-bromo-4-chloro-phenyl)-1-methyl-3-(2-pyridyl)-4,6,7,8-tetrahydropyrazolo[3,4-e][1,4]thiazepine], in assay [1], the IC50 is below 100 nM. In addition, the Emax in assay [2] (setting [3]) was above 50%.

As for `Cc1cc(Cl)ccc1[C@@H]1SC(C)(C)CNc2c1c(C)nn2C` (single isomer, unassigned) [M.7], the IC50 in assay [1] lay in the range of 1000 to 10000 nM. Also, the maximal effect (Emax) in assay [2] (setting [3]) was below 50%.

In the case of `Cc1nn(C)c2c1C(c1ccc(Cl)cc1Cl)SCCN2` (centres unmarked) [D.80], the IC50 in assay [1] was 100 to 1000 nM. The same compound registered an Emax in assay [2] (setting [3]) below 50%.

Regarding `Cn1nc(C2CC2)c2c1NCC(C)(C)SC2c1ccc(Cl)cc1F` (single isomer, unassigned) [M.4, 4-(4-chloro-2-fluorophenyl)-3-cyclopropyl-1,6,6-trimethyl-4,6,7,8-tetrahydro-1H-pyrazolo[3,4-e][1,4]thiazepine], the IC50 in assay [1] was below 100 nM. Further, the “A549 Emax” value in assay [2] (setting [4]) is “D (a compound with Emax<50%)”.

For the compound `Cc1ccc(C2SCCNc3c2c(-c2ccccn2)nn3C)c(C)c1` (centres unmarked) [D.9], in assay [1], the IC50 is below 100 nM. Besides, the maximal response (Emax) in assay [2] (setting [3]) was below 50%.

On to `Cn1nc(-c2ccccn2)c2c1NC(=O)CSC2c1ccc(Br)cc1Cl` (centres unmarked) [C.2, 4-(4-bromo-2-chloro-phenyl)-1-methyl-3-(2-pyridyl)-4,8-dihydropyrazolo[3,4-e][1,4]thiazepin-7-one], for which, in assay [1], the IC50 lay in the range of 100 to 1000 nM. The compound also gave an Emax in assay [2] (setting [4]) below 50%.

`Cn1nc(-c2ccccn2)c2c1NCCSC2c1ccc(C(N)=O)cc1Cl` (centres unmarked) [I.1, 3-chloro-4-[1-methyl-3-(2-pyridyl)-4,6,7,8-tetrahydropyrazolo[3,4-e][1,4]thiazepin-4-yl]benzamide]: the IC50 in assay [1] was in the range of 100 to 1000 nM. For the same compound, the Emax in assay [2] (setting [3]) was below 50%.

With `CCn1nc(-c2ccccn2)c2c1N[C@@H](C)CS[C@H]2c1ccc(CCC(C)(C)O)cc1C` (single isomer, unassigned) [M.39, 4-(4-(1-ethyl-7-methyl-3-(pyridin-2-yl)-4,6,7,8-tetrahydro-1H-pyrazolo[3,4-e][1,4]thiazepin-4-yl)-3-methylphenyl)-2-methylbutan-2-ol], the IC50 in assay [1] is below 100 nM. This compound had an Emax in assay [2] (setting [3]) above 70%.

On to `Cn1nc(-c2ccccn2)c2c1NCCSC2c1ccc(Cl)cc1F` (centres unmarked) [D.103], for which, in assay [1], the IC50 was below 100 nM. In assay [2] (setting [3]), the Emax is below 50%.

On to `Cn1nc(-c2ccc(Br)cn2)c2c1NCCSC2c1ccc(Cl)cc1Cl` (centres unmarked) [D.15, 3-(5-bromo-2-pyridyl)-4-(2,4-dichlorophenyl)-1-methyl-4,6,7,8-tetrahydropyrazolo[3,4-e][1,4]thiazepine], for which the IC50 in assay [1] was below 100 nM. Also, the maximum response (Emax) in assay [2] (setting [3]) is below 50%.

On to `COc1cc(Cl)ccc1C1SCCNc2c1c(-c1ccccn1)nn2C` (centres unmarked) [D.5], for which the IC50 in assay [1] is below 100 nM. In assay [2] (setting [3]), this compound showed a maximal effect (Emax) below 50%.

Take `Cn1nc(-c2nccs2)c2c1NCCSC2c1ccc(Cl)cc1Cl` (centres unmarked) [D.16]: the IC50 in assay [1] is below 100 nM. For the same compound, in assay [2] (setting [3]), the Emax was below 50%.

Consider `CCn1nc(-c2ccccn2)c2c1N[C@@H](C)CS[C@H]2c1ccc(C#CC(C)(C)O)cc1C` (single isomer, unassigned) [M.32, 4-(4-(1-ethyl-7-methyl-3-(pyridin-2-yl)-4,6,7,8-tetrahydro-1H-pyrazolo[3,4-e][1,4]thiazepin-4-yl)-3-methylphenyl)-2-methylbut-3-yn-2-ol], for which the IC50 in assay [1] is below 100 nM. The same compound came in with an Emax in assay [2] (setting [3]) above 70%.

On to `Cc1ncccc1NC(=O)c1ccc([C@H]2SCCNc3c2c(-c2ccccn2)nn3C)c(Cl)c1`, for which the IC50 in assay [1] is below 100 nM. Moreover, in assay [2] (setting [4]), the “A549 Emax” value is listed as “A (a compound with Emax>70%)”.

With `Cc1cc(C#N)ccc1[C@H]1S[C@@H](C)CNc2c1c(C1CC1)nn2C` (racemic) [G.3], the IC50 in assay [1] is below 100 nM. Further, in assay [2] (setting [3]), the Emax is below 50%.

Turning to `COc1ccnc(-c2nn(C)c3c2C(c2ccc(Cl)cc2C)SCCN3)c1` (centres unmarked) [D.22], the IC50 in assay [1] is below 100 nM. In addition, the Emax in assay [2] (setting [3]) was below 50%.

As for `COc1cc(C2SCCNc3c2c(-c2ccccn2)nn3C)c(C)cc1Cl` (centres unmarked) [D.35], in assay [1], the IC50 lay in the range of 1000 to 10000 nM. In assay [2] (setting [3]), this compound displayed an Emax below 50%.

Turning to `Cc1cc(C(=O)Nc2cccnc2C)ccc1[C@@H]1SC[C@H](C)Nc2c1c(-c1ccncn1)nn2C` (single isomer, unassigned) [M.58, 4-(1,7-dimethyl-3-(pyrimidin-4-yl)-4,6,7,8-tetrahydro-1H-pyrazolo[3,4-e][1,4]thiazepin-4-yl)-3-methyl-N-(2-methylpyridin-3-yl)benzamide], the IC50 in assay [1] is below 100 nM. This compound showed an Emax in assay [2] (setting [3]) above 70%.

Consider `Cc1cc(Cl)ccc1C1SC(C)(C)CNc2c1c(C)nn2C1CCCC1` (centres unmarked) [D.70], for which the IC50 in assay [1] was in the range of 100 to 1000 nM. The compound also returned an Emax in assay [2] (setting [3]) below 50%.

On to `Cc1nn(C)c2c1C(c1ccc(Cl)cc1Cl)SC(C)(C)CN2C=O` (centres unmarked), for which, in assay [1], the IC50 is 1000 to 10000 nM. In assay [2] (setting [3]), this compound yielded an Emax below 50%.

Turning to `CCn1nc(-c2ccccn2)c2c1N[C@H](C)CS[C@H]2c1ccc(C#CCO)cc1C` (single isomer, unassigned) [M.27, 3-(4-(1-ethyl-7-methyl-3-(pyridin-2-yl)-4,6,7,8-tetrahydro-1H-pyrazolo[3,4-e][1,4]thiazepin-4-yl)-3-methylphenyl)prop-2-yn-1-ol], in assay [1], the IC50 was below 100 nM. In assay [2] (setting [3]), the maximal response (Emax) was above 60%.
